Test results taken from BindingDB's records for patent US20240226096 (Poseidon Innovation 1, 2024).
pIC50: −log10 of the molar value.

Molecular target: T1, Bromodomain-containing protein 4 [368-440] (Homo sapiens, UniProt O60885)
T1 construct: 368-440
Assay: BET BRD Assay
Procedure: 3x Complete Substrate plus Inhibitor Solution in Assay Medium (Opti-MEM I Reduced Serum Medium, no phenol red, and no serum) was prepared just before measuring BRET. This solution consisted of a 1:166 dilution of NanoBRET Nano-Glo Substrate plus a 1:500 dilution of Extracellular NanoLuc Inhibitor in Assay Medium. For a 96-well plate, 30 ul of NanoBRET Nano-Glo Substrate, 10 ul of Extracellular NanoLuc Inhibitor and 4,960 ul of Assay Medium were mixed to produce 5 ml of 3x Complete Substrate plus Inhibitor Solution, followed with gently mixing by inversion 5-10 times in a conical tube. (The final concentration of Extracellular NanoLuc Inhibitor in the 3x solution was 60 uM, for a working concentration of 20 uM. Use 3x Complete Substrate plus Inhibitor Solution within 2 hours. Discard any remaining solution). […] Donor emission wavelength (e.g., 450 nm) and acceptor emission wavelength (e.g., 610 nm) were measured by using the GloMax Discover System or other NanoBRET Assay-compatible luminometer (it is recommended measuring BRET within 10 minutes after adding NanoBRET Nano-Glo Substrate plus Extracellular NanoLuc Inhibitor Solution. However, BRET can be measured for up to 2 hours, but there will be some loss of luminescence signal). […]

Q: How did the pIC50 turn out when Cc1cc(-c2ccc(-n3ccn(C)c3=O)c(Cl)c2)c(O)c(-c2cccc(N3CCN(C(C)(C)C)CC3)c2)n1 [US20240226096, Example I-2] was run?
A: Its pIC50 is 7.99.
